Reference: the supplement of paper PMC12137928
Counter-ions that a name gives are not always drawn.

What was measured:
[1] = test system: HCT116; conditions: 72 h
Method in brief: (§1)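 HCT116 cells were seeded at 250 per well in 1536-well plates and left 5 h to attach. CellTiter-Glo luminescence was scaled to vehicle (0%) and positive control (-100%), then pattern-corrected. IC50 and maximal efficacy came from four-parameter Hill fits.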

[2] = test system: HCT116; experiment: efficacy (maximum % inhibition of viability vs DMSO); higher = more cytotoxic; conditions: 72 h
Method in brief: as §1

IC50 cell viability ([1]; ICRF193 0 nM) | IC50 cell viability ([1]; ICRF193 200 nM) | SMILES | efficacy ([2]; ICRF193 0 nM) | efficacy ([2]; ICRF193 200 nM)
18.3 µM | 20.6 µM | O=c1ccc2ccc(OCCCCN3CCN(c4cccc5sccc45)CC3)cc2[nH]1 [Brexpiprazole] | 102% | 106%
20.6 µM | 13 µM | COc1cc(N2CCC(N3CCN(C)CC3)CC2)ccc1Nc1ncc(Cl)c(Nc2ccccc2P(C)(C)=O)n1 [Brigatinib] | 82.6% | 92.5%
18.3 µM | 20.6 µM | O=C(CCCN1CCC(O)(c2ccc(Br)cc2)CC1)c1ccc(F)cc1 [Bromperidol] | 44.8% | 55.1%
20.6 µM | 20.6 µM | CC(C)(C)c1ccc(CN2CCN(C(c3ccccc3)c3ccc(Cl)cc3)CC2)cc1 (stereo not given) [Buclizine HCl] | 42.9% | 59%
11.6 µM | 10.3 µM | CCCCCCOc1ccc(C(=N)N(CCCC)CCCC)c2ccccc12 [Bunamidine hydrochloride] | 104% | 106%
20.6 µM | 25.9 µM | Clc1ccc(CCC(Cn2ccnc2)Sc2c(Cl)cccc2Cl)cc1 (stereo not given) [Butoconazole nitrate] | 96% | 93.9%
10.3 µM | 5.17 µM | CC1=CC(=C(c2ccc(N)cc2)c2ccc(N)cc2)C=CC1=N [C.I. Basic Violet 14] | 98.1% | 92.3%
> 45.8 µM | 6.51 µM | O=C(O)C1=C(CSc2nnnn2CS(=O)(=O)O)CS[C@@H]2[C@H](NC(=O)[C@H](O)c3ccccc3)C(=O)N12 [CEFONICID SODIUM] |  | 85.2%
23.1 µM | 23.1 µM | C=C1CC[C@H](O)C/C1=C/C=C1\CCC[C@]2(C)[C@@H]([C@H](C)CCCC(C)C)CC[C@@H]12 [CHOLECALCIFEROL] | 87.9% | 79.4%
> 45.8 µM | 0.0058 µM | CO[C@H]1C(=O)[C@]2(C)[C@@H](OC)C[C@H]3OC[C@@]3(OC(C)=O)[C@H]2[C@H](OC(=O)c2ccccc2)[C@]2(O)C[C@H](OC(=O)[C@H](O)[C@@H](NC(=O)OC(C)(C)C)c3ccccc3)C(C)=C1C2(C)C [Cabazitaxel] |  | 65.5%
20.6 µM | 16.4 µM | COc1cc2nccc(Oc3ccc(NC(=O)C4(C(=O)Nc5ccc(F)cc5)CC4)cc3)c2cc1OC [Cabozantinib] | 58.4% | 69.8%
> 45.8 µM | 23.1 µM | C=C1CC[C@H](O)C/C1=C/C=C1\CCC[C@]2(C)[C@@H]([C@H](C)CCCC(C)(C)O)CC[C@@H]12 [Calcifediol (monohydrate)] |  | 42.8%
> 45.8 µM | 20.6 µM | C=C1/C(=C\C=C2/CCC[C@]3(C)[C@@H]([C@H](C)/C=C/[C@@H](O)C4CC4)CC[C@@H]23)C[C@@H](O)C[C@@H]1O [Calcipotriene] |  | 54%
13 µM | 23.1 µM | CC(C)OC(=O)Nc1ccc2[nH]c(-c3cscn3)nc2c1 [Cambendazole] | 63% | 97.2%
20.6 µM | 29.1 µM | CCOc1nc2cccc(C(=O)OC(C)OC(=O)OC3CCCCC3)c2n1Cc1ccc(-c2ccccc2-c2nn[nH]n2)cc1 (stereo not given) [Candesartan cilexetil (Atacand)] | 93% | 100%
25.9 µM | 20.6 µM | CO[C@@H]1[C@@H](O[C@@H]2O[C@H](C)[C@@H](O[C@H]3C[C@@](C)(O)[C@@H](OC(=O)CC(C)C)[C@H](C)O3)[C@H](N(C)C)[C@H]2O)[C@@H](CC=O)C[C@@H](C)C(=O)/C=C/[C@@H]2O[C@H]2C[C@@H](C)OC(=O)C[C@H]1OC(C)=O [Carbomycin A] | 93% | 91.2%
0.0183 µM | 0.0164 µM | CC(C)C[C@H](NC(=O)[C@H](CCc1ccccc1)NC(=O)CN1CCOCC1)C(=O)N[C@@H](Cc1ccccc1)C(=O)N[C@@H](CC(C)C)C(=O)[C@@]1(C)CO1 [Carfilzomib] | 86% | 89.7%
10.3 µM | 8.2 µM | CCCCCCNC(=O)n1cc(F)c(=O)[nH]c1=O [Carmofur] | 87.1% | 92%
23.1 µM | 20.6 µM | NC(=O)C1(N2CCCCC2)CCN(CCCN2c3ccccc3CCc3ccccc32)CC1 [Carpipramine Dihydrochloride] | 115% | 100%

IC50 cell viability ([1]; ICRF193 0 nM) | IC50 cell viability ([1]; ICRF193 200 nM) | SMILES | efficacy ([2]; ICRF193 0 nM) | efficacy ([2]; ICRF193 200 nM)
20.6 µM | 29.1 µM | COc1ccccc1OCCNCC(O)COc1cccc2[nH]c3ccccc3c12 (stereo not given) [Carvedilol tartrate] | 96.8% | 102%
18.3 µM | 18.3 µM | Cc1ccc(-c2cc(C(F)(F)F)nn2-c2ccc(S(N)(=O)=O)cc2)cc1 [Celecoxib] | 47.1% | 58.1%
> 45.8 µM | 6.51 µM | CC(=O)OCC1=C(C(=O)O)N2C(=O)[C@@H](NC(=O)[C@H](N)c3ccccc3)[C@H]2SC1 [Cephaloglycin] |  | 61.5%
> 45.8 µM | 4.61 µM | COc1ccc2cc1Oc1ccc(cc1)C[C@H]1c3c(cc4c(c3Oc3cc5c(cc3OC)CCN(C)[C@@H]5C2)OCO4)CCN1C [Cepharanthine] |  | 41.2%
18.3 µM | 29.1 µM | Cc1cc(Nc2ncc(Cl)c(Nc3ccccc3S(=O)(=O)C(C)C)n2)c(OC(C)C)cc1C1CCNCC1 [Ceritinib] | 108% | 105%
1.03 µM | 0.92 µM | COCc1c(C(C)C)nc(C(C)C)c(/C=C/[C@@H](O)C[C@@H](O)CC(=O)O)c1-c1ccc(F)cc1 [Cerivastatin sodium] | 106% | 102%
18.3 µM | 18.3 µM | N=C(NCCCCCCNC(=N)NC(=N)Nc1ccc(Cl)cc1)NC(=N)Nc1ccc(Cl)cc1 [Chlorhexidine] | 104% | 103%
> 45.8 µM | 23.1 µM | COc1ccc(C(Cl)=C(c2ccc(OC)cc2)c2ccc(OC)cc2)cc1 [Chlorotrianisene] |  | 45.8%
29.1 µM | 29.1 µM | Oc1c(Cl)cc(Cl)c2cccnc12 [Chloroxine] | 103% | 112%
20.6 µM | 29.1 µM | CN(C)CCCN1c2ccccc2Sc2ccc(Cl)cc21 [Chlorpromazine] | 117% | 93.2%
16.4 µM | 25.9 µM | CN(C)CC/C=C1/c2ccccc2Sc2ccc(Cl)cc21 [Chlorprothixene] | 66.1% | 68.9%
11.6 µM | 13 µM | Cc1cc(C2CCCCC2)n(O)c(=O)c1 [Ciclopirox] | 107% | 98.9%
18.3 µM | 20.6 µM | COCCOC(=O)C1=C(C)NC(C)=C(C(=O)OC/C=C/c2ccccc2)C1c1cccc([N+](=O)[O-])c1 (stereo not given) [Cilnidipine] | 82.3% | 103%
> 45.8 µM | 23.1 µM | O=C1CCc2cc(OCCCCc3nnnn3C3CCCCC3)ccc2N1 [Cilostazol] |  | 46%
20.6 µM | 20.6 µM | C[C@@H](NCCCc1cccc(C(F)(F)F)c1)c1cccc2ccccc12 [Cinacalcet hydrochloride] | 87.6% | 94.6%
1.3 µM | 0.651 µM | Nc1nc(Cl)nc2c1ncn2[C@H]1C[C@H](O)[C@@H](CO)O1 [Cladribine] | 56.1% | 66.1%
18.3 µM | 23.1 µM | CN1CCC[C@@H]1CCO[C@](C)(c1ccccc1)c1ccc(Cl)cc1 [Clemastine fumarate] | 88% | 114%
29.1 µM | 29.1 µM | Oc1c(I)cc(Cl)c2cccnc12 [Clioquinol] | 99.1% | 98.1%
20.6 µM | 14.6 µM | CCCC(=O)O[C@]1(C(=O)CCl)[C@H](C)C[C@@H]2[C@@H]3CCC4=CC(=O)C=C[C@]4(C)[C@]3(F)C(=O)C[C@@]21C [Clobetasone butyrate] | 50.4% | 40.9%

SMILES | IC50 cell viability ([1]; ICRF193 0 nM) | IC50 cell viability ([1]; ICRF193 200 nM) | efficacy ([2]; ICRF193 0 nM) | efficacy ([2]; ICRF193 200 nM)
C[C@]12CC[C@H](O)C[C@H]1CC[C@@H]1[C@@H]2CC[C@]2(C)[C@@H](c3ccc(=O)oc3)C[C@H]3O[C@]132 [Bufogenin] | 4.61 µM | 4.61 µM | 71.3% | 84.6%
C=C(C)[C@@H]1CCC(C)=C[C@H]1c1c(O)cc(CCCCC)cc1O [Cannabidiol] | 20.6 µM | 23.1 µM | 52.9% | 49.4%
C[C@@]12C(=O)OC(=O)[C@]1(C)[C@H]1CC[C@@H]2O1 [Cantharidin] | 5.8 µM | 4.11 µM | 74.9% | 77.2%
CCCCCCCCCCCCCCCC[n+]1ccccc1 [Cetylpyridinium bromide] | 2.59 µM | 2.59 µM | 90.6% | 90.4%
